In US8415469B2, “Compounds and methods for kinase modulation, and indications therefor” (Plexxikon Inc., priority 2005, dated 2013):

Tests used:
Type in all cases: biochemical
[1] = molecular target: T1, B-Raf (Homo sapiens, UniProt P15056); assay: AlphaScreen kinase assay, B-Raf; conditions: read-out: IC50, activity toward kinase B-Raf
T1 construct: purchased Upstate Biotechnology

[2] = molecular target: T2, B-Raf V600E (Homo sapiens, UniProt P15056, V600E); assay: AlphaScreen kinase assay, B-Raf V600E; conditions: read-out: IC50, activity toward kinase B-Raf V600E
T2 construct: P4254. pFastBacBD-CDC37 BRAF D437-K722-X, V600E; His6 with pFastBac HT leader (TEV site) (N); made in house; host or cells: Sf9 (baculovirus; chaperone CDC37 co-expressed)

[3] = molecular target: T3, FGFR1 (Homo sapiens, UniProt P11362, C488A/C584S); assay: AlphaScreen kinase assay, FGFR1; conditions: read-out: IC50, activity toward kinase FGFR
T3 construct: P1351.pET N6 BI-PTP FGFR A458-E765-X C488A, C584S; made in house; host or cells: E. coli (PTP1B co-expressed)
Experimental: AlphaScreen assays were done using compounds dissolved in DMSO to a concentration of 20 mM. The compounds were diluted accordingly to the desired final concentrations in each sample well, using 1:3 serial dilution for a total of 8 concentration points. Plates were prepared such that each kinase reaction is 20 μl in 1× kinase buffer, 5% DMSO and 10 μM ATP. After incubation of the kinase reaction for 1 hour at room temperature, 5 μl of donor beads in stop buffer (50 mM EDTA in 1× kinase buffer) was added, the sample was mixed and incubated for 20 minutes at room temperature before adding 5 μl of acceptor beads in stop buffer. The samples were incubated for 60 minutes at room temperature and the signal per well was read on AlphaQuest reader.

[4] = molecular target: T4, Fms (Homo sapiens, UniProt P07333); assay: AlphaScreen kinase assay, Fms; conditions: read-out: IC50, activity toward kinase Fms
T4 construct: purchased Upstate Biotechnology

[5] = molecular target: T5, Kit (Homo sapiens, UniProt P10721); assay: AlphaScreen kinase assay, Kit; conditions: read-out: IC50, activity toward kinase Kit
T5 construct: P1332.N6 BI PTP KIT M552-K948-X COD; His6 (N); made in house; host or cells: E. coli (PTP1B co-expressed)

[6] = molecular target: T6, Src (Homo sapiens, UniProt P12931); assay: AlphaScreen kinase assay, Src; conditions: read-out: IC50, activity toward kinase Src
T6 construct: P1144. pET-N6 BI-PTP SRC V86-L536-X; made in house

[7] = molecular target: Gsk3β (Homo sapiens, UniProt P49841); assay: AlphaScreen kinase assay, Gsk3β; conditions: read-out: IC50, activity toward kinase Gsk3β
Text: AlphaScreen assay was used to screen additional kinases. The assay is similarly dependent on the phosphorylation of a peptide substrate. In this assay, an antibody that recognizes phosphorylated substrate is bound to an acceptor bead. The peptide substrate is attached to biotin, which binds to a donor head that contains streptavidin. Thus phosphorylated substrate is bound by antibody and streptavidin, bringing the donor and acceptor heads into close proximity when kinase is not inhibited. The donor produces singlet oxygen which results in emission from the acceptor when they are in close proximity. Conversely, when kinase is inhibited, the donor and acceptor beads are not associated and the emission from the acceptor is reduced.
AlphaScreen assays were done using compounds dissolved in DMSO to a concentration of 20 mM. The compounds were diluted accordingly to the desired final concentrations in each sample well, using 1:3 serial dilution for a total of 8 concentration points.

[8] = molecular target: MAP4K4 (Homo sapiens, UniProt O95819); assay: AlphaScreen kinase assay, MAP4K4; conditions: read-out: IC50, activity toward kinase MAP4K4
[9] = molecular target: T7, c-Raf-1 (Homo sapiens, UniProt P04049); assay: AlphaScreen kinase assay, c-Raf-1; conditions: read-out: IC50, activity toward kinase c-Raf-1
T7 construct: purchased Upstate Biotechnology

[10] = molecular target: T8, Fak (Homo sapiens, UniProt Q05397); assay: AlphaScreen kinase assay, Fak; conditions: read-out: IC50, activity toward kinase Fak
T8 construct: P1358.pFastBacHtb FAK S411-Q686-X; His6 with pFastBacHTb leader (TEV site) (N); made in house; host or cells: Sf9 (baculovirus)

[11] = molecular target: T9, Flt1 (Homo sapiens, UniProt P17948); assay: AlphaScreen kinase assay, Flt1; conditions: read-out: IC50, activity toward kinase Flt1
T9 construct: P1826.pETN6 BI-PTP FLT1 M799-D1165-X WT; His6 (N); made in house; host or cells: E. coli (PTP1B co-expressed)
T9 sequence (P17948 with tags, fused parts or gaps): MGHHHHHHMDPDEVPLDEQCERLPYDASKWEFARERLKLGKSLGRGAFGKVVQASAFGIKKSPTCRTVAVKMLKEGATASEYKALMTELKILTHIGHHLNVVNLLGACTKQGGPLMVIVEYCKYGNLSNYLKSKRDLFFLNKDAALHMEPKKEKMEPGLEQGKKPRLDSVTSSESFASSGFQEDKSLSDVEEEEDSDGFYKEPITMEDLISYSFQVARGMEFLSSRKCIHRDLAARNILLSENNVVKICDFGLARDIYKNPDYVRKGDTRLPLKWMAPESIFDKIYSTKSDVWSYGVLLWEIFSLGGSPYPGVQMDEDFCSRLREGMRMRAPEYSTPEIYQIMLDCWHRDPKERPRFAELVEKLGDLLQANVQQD

[12] = molecular target: T10, Jnk1 (Homo sapiens, UniProt P45983); assay: AlphaScreen kinase assay, Jnk1; conditions: read-out: IC50, activity toward kinase Jnk1
T10 construct: purchased Upstate Biotechnology

[13] = molecular target: T11, Jnk3 (Homo sapiens, UniProt P53779); assay: AlphaScreen kinase assay, Jnk3; conditions: read-out: IC50, activity toward kinase Jnk3
T11 construct: purchased Upstate Biotechnology

[14] = molecular target: T12, Pyk2 (Homo sapiens, UniProt Q14289); assay: AlphaScreen kinase assay, Pyk2; conditions: read-out: IC50, activity toward kinase Pyk2
T12 construct: purchased Upstate Biotechnology

[15] = molecular target: T13, Stk6 (Homo sapiens, UniProt O14965); assay: Z'-Lyte FRET kinase assay (Invitrogen), Stk6; conditions: read-out: IC50, activity toward kinase Stk6
T13 construct: purchased Invitrogen (Carlsbad, Calif.), screening service
T13 sequence (O14965 1-403): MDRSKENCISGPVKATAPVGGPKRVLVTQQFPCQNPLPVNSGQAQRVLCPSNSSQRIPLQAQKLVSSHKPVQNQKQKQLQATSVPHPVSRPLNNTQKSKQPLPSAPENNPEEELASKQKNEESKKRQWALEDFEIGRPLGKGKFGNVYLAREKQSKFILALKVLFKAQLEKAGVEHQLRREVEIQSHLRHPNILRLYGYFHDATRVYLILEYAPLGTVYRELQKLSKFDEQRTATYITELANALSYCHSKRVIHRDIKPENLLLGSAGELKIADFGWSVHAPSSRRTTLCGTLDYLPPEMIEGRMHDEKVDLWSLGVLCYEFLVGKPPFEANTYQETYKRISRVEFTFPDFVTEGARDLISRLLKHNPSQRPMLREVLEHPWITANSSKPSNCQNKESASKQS

[16] = molecular target: T14, Btk (Homo sapiens, UniProt Q06187); assay: Z'-Lyte FRET kinase assay (Invitrogen), Btk; conditions: read-out: IC50, activity toward kinase Btk
T14 construct: purchased Invitrogen (assay run by Invitrogen)

[17] = molecular target: T15, Ret (Homo sapiens, UniProt P07949); assay: AlphaScreen kinase assay, Ret; conditions: read-out: IC50, activity toward kinase Ret
T15 construct: P1378.pET-SF BI-PTP RET H661-R1012 HIS; made in house
T15 sequence (P07949 with tags, fused parts or gaps): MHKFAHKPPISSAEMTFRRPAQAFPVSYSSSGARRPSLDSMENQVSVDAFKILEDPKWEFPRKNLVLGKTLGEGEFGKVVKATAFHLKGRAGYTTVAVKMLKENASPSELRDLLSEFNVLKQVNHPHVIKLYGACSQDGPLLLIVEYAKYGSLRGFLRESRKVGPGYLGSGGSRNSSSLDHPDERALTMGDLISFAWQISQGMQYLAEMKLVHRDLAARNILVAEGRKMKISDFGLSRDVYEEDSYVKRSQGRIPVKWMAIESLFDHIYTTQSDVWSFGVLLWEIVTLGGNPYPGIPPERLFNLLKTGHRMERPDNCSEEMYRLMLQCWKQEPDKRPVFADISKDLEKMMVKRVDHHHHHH

Measured: IC50

MAP4K4, sequence (O95819 whole entry): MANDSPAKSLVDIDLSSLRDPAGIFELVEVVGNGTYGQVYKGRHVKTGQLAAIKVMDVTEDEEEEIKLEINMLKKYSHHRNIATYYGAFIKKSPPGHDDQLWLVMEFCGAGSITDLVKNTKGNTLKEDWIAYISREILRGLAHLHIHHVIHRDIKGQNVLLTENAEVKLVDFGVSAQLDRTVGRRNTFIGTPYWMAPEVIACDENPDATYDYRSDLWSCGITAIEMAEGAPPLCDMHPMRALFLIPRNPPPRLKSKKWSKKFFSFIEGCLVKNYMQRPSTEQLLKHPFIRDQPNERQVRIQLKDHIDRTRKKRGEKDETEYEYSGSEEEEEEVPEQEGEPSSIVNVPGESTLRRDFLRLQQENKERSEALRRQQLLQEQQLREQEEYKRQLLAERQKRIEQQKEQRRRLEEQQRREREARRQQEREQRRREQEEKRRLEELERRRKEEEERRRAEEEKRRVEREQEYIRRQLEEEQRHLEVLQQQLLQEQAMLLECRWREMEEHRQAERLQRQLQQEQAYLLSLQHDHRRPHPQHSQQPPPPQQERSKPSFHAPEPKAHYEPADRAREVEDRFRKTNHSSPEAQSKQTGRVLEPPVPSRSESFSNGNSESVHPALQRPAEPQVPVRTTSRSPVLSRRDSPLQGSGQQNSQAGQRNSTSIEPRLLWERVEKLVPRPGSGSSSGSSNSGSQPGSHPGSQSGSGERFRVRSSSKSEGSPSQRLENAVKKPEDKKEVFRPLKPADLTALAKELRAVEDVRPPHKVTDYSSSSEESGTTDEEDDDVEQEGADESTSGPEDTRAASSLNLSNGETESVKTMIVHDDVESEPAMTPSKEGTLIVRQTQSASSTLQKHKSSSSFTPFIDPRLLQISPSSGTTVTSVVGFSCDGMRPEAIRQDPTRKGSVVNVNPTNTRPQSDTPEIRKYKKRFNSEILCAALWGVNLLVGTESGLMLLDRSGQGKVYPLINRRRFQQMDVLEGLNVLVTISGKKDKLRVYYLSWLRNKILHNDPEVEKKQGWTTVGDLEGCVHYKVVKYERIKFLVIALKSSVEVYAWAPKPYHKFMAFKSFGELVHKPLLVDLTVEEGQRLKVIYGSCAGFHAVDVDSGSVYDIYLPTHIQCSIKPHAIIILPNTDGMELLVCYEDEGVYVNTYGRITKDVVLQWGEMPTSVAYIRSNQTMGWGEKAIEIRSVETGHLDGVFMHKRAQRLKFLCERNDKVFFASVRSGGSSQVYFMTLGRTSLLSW
T1 sequence (P15056 whole entry): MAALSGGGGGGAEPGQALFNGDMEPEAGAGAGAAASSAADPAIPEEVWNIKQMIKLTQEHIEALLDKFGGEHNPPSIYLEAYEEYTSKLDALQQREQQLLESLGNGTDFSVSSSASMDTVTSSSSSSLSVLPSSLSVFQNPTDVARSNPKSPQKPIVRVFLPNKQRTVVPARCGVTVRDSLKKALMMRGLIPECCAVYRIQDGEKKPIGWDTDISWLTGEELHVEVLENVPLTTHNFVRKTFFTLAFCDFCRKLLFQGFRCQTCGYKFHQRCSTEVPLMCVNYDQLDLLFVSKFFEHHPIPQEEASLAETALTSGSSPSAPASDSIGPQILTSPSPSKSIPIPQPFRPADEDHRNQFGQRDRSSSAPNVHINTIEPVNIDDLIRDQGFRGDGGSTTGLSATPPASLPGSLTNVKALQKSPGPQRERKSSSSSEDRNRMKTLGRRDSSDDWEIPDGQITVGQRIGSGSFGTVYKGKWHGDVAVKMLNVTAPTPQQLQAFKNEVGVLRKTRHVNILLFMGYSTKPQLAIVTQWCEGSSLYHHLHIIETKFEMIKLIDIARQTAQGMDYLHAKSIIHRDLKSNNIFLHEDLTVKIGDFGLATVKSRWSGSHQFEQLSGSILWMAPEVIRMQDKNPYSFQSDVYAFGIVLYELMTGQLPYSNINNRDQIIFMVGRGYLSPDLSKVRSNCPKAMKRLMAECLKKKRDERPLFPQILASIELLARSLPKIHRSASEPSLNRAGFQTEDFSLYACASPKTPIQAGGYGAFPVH
T4 sequence (P07333 20-972): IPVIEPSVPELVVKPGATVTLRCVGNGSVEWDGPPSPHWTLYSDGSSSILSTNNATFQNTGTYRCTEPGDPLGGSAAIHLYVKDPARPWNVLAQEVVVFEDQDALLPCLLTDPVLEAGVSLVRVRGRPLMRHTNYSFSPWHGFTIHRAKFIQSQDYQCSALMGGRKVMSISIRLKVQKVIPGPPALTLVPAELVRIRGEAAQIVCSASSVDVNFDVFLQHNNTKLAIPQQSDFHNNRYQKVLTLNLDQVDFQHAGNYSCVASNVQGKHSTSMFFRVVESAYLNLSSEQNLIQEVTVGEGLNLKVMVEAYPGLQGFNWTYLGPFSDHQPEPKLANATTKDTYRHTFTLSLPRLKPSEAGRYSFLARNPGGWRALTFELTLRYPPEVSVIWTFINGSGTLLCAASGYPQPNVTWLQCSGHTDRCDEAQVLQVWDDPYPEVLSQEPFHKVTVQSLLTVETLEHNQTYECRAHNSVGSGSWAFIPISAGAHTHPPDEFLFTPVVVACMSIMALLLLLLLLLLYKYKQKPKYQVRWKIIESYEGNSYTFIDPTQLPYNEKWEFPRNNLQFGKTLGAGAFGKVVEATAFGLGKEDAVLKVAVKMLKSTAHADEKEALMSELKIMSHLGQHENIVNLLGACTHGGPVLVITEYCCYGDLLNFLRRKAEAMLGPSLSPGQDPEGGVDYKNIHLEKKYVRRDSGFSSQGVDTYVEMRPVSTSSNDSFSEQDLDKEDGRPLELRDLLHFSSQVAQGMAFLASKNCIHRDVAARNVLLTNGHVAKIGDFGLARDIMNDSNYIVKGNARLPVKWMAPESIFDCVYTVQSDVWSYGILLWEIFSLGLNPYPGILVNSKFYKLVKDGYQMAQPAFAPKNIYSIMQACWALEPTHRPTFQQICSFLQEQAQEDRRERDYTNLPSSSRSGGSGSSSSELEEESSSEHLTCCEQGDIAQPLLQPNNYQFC
T7 sequence (P04049 whole entry): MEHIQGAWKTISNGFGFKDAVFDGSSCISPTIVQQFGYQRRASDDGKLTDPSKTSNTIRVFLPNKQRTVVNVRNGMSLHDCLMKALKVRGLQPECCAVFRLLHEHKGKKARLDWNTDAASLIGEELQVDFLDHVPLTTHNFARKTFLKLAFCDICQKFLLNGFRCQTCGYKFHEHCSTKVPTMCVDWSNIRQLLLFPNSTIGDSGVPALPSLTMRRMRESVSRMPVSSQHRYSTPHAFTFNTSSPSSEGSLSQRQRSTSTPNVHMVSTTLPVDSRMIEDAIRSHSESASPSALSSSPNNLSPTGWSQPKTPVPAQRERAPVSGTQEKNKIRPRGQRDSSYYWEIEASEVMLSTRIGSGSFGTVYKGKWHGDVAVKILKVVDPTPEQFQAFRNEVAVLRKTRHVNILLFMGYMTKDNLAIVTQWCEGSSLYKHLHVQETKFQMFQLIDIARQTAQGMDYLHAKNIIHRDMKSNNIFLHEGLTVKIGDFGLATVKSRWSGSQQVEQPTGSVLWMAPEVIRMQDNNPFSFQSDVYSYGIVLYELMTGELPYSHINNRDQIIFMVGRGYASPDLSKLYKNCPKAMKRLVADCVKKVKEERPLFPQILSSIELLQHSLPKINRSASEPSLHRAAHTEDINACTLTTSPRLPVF
T12 sequence (Q14289 whole entry): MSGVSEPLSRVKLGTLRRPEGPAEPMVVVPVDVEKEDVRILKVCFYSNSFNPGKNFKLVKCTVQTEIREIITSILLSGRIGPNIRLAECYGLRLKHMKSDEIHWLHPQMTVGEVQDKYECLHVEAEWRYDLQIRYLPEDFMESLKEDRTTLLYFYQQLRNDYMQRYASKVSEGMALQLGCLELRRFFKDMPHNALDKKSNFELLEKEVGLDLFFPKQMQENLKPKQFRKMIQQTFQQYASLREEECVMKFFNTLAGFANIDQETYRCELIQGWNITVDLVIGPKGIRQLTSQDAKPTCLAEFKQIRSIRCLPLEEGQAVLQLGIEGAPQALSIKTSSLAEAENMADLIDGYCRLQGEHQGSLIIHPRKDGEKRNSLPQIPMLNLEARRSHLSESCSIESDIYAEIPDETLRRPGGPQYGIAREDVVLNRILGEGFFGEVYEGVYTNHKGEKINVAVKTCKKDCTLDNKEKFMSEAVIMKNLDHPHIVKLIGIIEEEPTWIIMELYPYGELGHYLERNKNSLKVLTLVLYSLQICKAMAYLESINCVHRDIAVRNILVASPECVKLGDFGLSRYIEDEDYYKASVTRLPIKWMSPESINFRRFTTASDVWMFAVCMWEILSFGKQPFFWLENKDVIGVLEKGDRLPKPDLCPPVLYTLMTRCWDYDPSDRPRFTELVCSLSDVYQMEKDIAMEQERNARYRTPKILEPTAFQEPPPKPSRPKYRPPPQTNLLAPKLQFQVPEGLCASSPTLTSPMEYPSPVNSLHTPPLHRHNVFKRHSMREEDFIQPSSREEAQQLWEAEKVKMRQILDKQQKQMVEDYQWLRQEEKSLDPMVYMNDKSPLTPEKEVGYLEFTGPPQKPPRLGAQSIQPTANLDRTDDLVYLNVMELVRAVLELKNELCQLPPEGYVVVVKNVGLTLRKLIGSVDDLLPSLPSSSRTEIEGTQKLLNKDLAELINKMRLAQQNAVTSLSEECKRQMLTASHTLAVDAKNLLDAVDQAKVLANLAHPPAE
T2 sequence (P15056 with tags, fused parts or gaps V600E): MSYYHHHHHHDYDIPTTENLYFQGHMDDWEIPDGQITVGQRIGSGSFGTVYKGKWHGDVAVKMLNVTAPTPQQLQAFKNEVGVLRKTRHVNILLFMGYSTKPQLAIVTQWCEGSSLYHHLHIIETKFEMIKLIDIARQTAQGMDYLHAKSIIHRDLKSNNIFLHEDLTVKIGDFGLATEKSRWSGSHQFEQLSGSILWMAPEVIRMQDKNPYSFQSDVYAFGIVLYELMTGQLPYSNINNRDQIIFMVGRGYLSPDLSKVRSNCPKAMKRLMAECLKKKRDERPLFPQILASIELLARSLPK

CCCS(=O)(=O)Nc1ccc(F)c(C(=O)c2c[nH]c3ncc(OCC)cc23)c1F [Compound P-1252, Propane-1-sulfonic acid [3-(5-ethoxy-1H-pyrrolo[2,3-b]pyridine-3-carbonyl)-2,4-difluoro-phenyl]-amide]
≤ 10 µM: [1] | [2] | [3] | [4] | [5] | [6] | [7] | [8]

O=C(c1c(F)ccc(NS(=O)(=O)c2ccccc2)c1F)c1c[nH]c2ncc(F)cc12 [Compound P-0902, N-[2,4-Difluoro-3-(5-fluoro-1H-pyrrolo[2,3-b]pyridine-3-carbonyl)-phenyl]-benzenesulfonamide]
≤ 10 µM: [1] | [2] | [9] | [3] | [7] | [8]

CC(=O)Nc1ccc(F)c(C(=O)c2c[nH]c3ncc(-c4cccnc4)cc23)c1F [Compound P-1002, N-[2,4-Difluoro-3-(5-pyridin-3-yl-1H-pyrrolo[2,3-b]pyridine-3-carbonyl)-phenyl]-acetamide]
not listed: [1] | [6] | [8] | [15] | [16] | [17]
≤ 10 µM: all other assays above

Cc1ccc(-c2c(C)[nH]c3ncccc23)s1 [Compound P-0207]
≤ 10 µM: [15] | [7]

Cc1ccccc1C(=O)c1c[nH]c2nccc(-c3cccc(/C=C/C(=O)O)c3)c12 [Compound P-0094]
≤ 10 µM: [16] | [17] | [15] | [7]

O=C(c1c(F)ccc(NS(=O)(=O)c2ccccc2)c1F)c1c[nH]c2ncccc12 [Compound P-0913, N-[2,4-Difluoro-3-(1H-pyrrolo[2,3-b]pyridine-3-carbonyl)-phenyl]-benzenesulfonamide]
≤ 10 µM: [1] | [2] | [9] | [3] | [4] | [5] | [7] | [8]

CN(C)c1cccc(Nc2ccc3cc[nH]c3n2)c1 [Compound P-1372, N,N-Dimethyl-N′-(1H-pyrrolo[2,3-b]pyridin-6-yl)-benzene-1,3-diamine]
≤ 10 µM: [11] | [4] | [13] | [5] | [14] | [7] | [8]

CCS(=O)(=O)Nc1ccc(F)c(C(=O)c2c[nH]c3ncc(-c4cccnc4)cc23)c1F [Compound P-0728, N-[2,4-difluoro-3-(5-pyridin-3-yl-1H-pyrrolo[2,3-b]pyridine-3-carbonyl)-phenyl]-ethanesulfonamide]
≤ 10 µM: [1] | [2] | [9] | [3] | [12] | [14] | [17] | [7] | [8]
